Test results reported in PubChem BioAssay (NCI).
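Tested at 5 concentrations; 48 h exposure; 96-well plates; endpoints linearly interpolated, else capped at highest concentration. The concentration for 50% growth inhibition is given as GI50. Definition used: TGI = concentration required for complete inhibition of growth.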

Key:
Test in all cases: DTP human tumour cell line panel, 48 h
BT-549 breast = system: BT-549 breast
HL-60(TB) leukemia = system: HL-60(TB) leukemia
KM12 colon = system: KM12 colon
LOX IMVI melanoma = system: LOX IMVI melanoma
M14 melanoma = system: M14 melanoma
MALME-3M melanoma = system: MALME-3M melanoma
NCI-H460 lung = system: NCI-H460 lung
OVCAR-3 ovarian = system: OVCAR-3 ovarian
SR leukemia = system: SR leukemia
UACC-62 melanoma = system: UACC-62 melanoma

Row | SMILES | GI50 (BT-549 breast) [µM] | TGI (BT-549 breast) [µM] | GI50 (HL-60(TB) leukemia) [µM] | TGI (HL-60(TB) leukemia) [µM] | GI50 (KM12 colon) [µM] | TGI (KM12 colon) [µM] | GI50 (LOX IMVI melanoma) [µM] | TGI (LOX IMVI melanoma) [µM] | GI50 (M14 melanoma) [µM] | TGI (M14 melanoma) [µM] | GI50 (MALME-3M melanoma) [µM] | TGI (MALME-3M melanoma) [µM] | GI50 (NCI-H460 lung) [µM] | TGI (NCI-H460 lung) [µM] | GI50 (OVCAR-3 ovarian) [µM] | TGI (OVCAR-3 ovarian) [µM] | GI50 (SR leukemia) [µM] | TGI (SR leukemia) [µM] | GI50 (UACC-62 melanoma) [µM] | TGI (UACC-62 melanoma) [µM]
1 | O=C(Nc1ccc(Cl)cc1)c1cc2c(cc1O)[nH]c1ccccc12 | 2.29 | 6.1 | 4.43 | > 100 | 2.89 | 7.27 | 3.48 | 13.1 | 2.85 | 10.4 | 2.45 | 5.76 | 3.11 | 10.2 | 3.72 | 12.2 | 3.44 | 31.6 | 2.49 | 8.89
2 | c1cc(C[S+]2CCCC2)ccc1C[S+]1CCCC1 |  | > 100 |  | > 100 |  | > 100 |  | > 100 |  | > 100 |  | > 100 |  | > 100 |  | > 100 |  | > 100 |  | > 100
3 | CC(=N\O)/C(C)=N/O.CC(=N\O)/C(C)=N/O.CC(=N\O)/C(C)=N/O.CC(=N\O)/C(C)=N/O.[Cu].[Cu] | 19 | 33.4 | 26.4 | 44.4 | 20.6 | 36.4 | 19 | 35.3 | 18.9 | 34.7 | 17.7 | 32.4 | 20.4 | 38.5 | 22.6 | 43.7 | 24 | 61.4 | 17.1 | 30.8
4 | O=CN1N=C(c2ccc(Nc3ccnc4cc(Cl)ccc34)cc2)CC1c1ccccc1 (centres undefined) | 3.81 | 15.6 | 2.66 | 6.21 | 3.41 | 56.9 | 1.61 | 3.33 | 4.12 | 31 | 4.21 | > 100 | 3.96 | > 100 | 2.78 | 7.71 | 1.77 | 4.9 | 1.55 | 4.16
5 | NC(=O)C(Br)CBr (centres undefined) | 2.39 | 7.4 | 0.728 | 3.05 | 7.63 | 21 | 1.98 | 5.93 | 1.63 | 3.02 | 1.91 | 4.53 | 3.56 | 13.5 | 1.48 | 2.83 | 0.394 | 2.56 | 2.14 | 6.07
6 | O=Nc1c(-c2cccc([N+](=O)[O-])c2)nc2cnccn12 |  | > 100 |  | > 100 |  | 95.4 |  | 28.5 |  | 42 |  | 56.5 |  | > 100 |  | 37.4 |  | 18.4 |  | 36.8
7 | CN(C)c1ccc(C(=O)c2ccc(N(C)C)c(N)c2)cc1N | 8.02 | > 88.2 | 1.29 | 9.08 | 0.785 | 43.4 | 7.75 | > 100 | 1.67 | 9.74 |  | > 100 | 2.62 | 34.5 | 1.86 | 8 | 0.406 | > 16.4 | 2.32 | > 64.5
8 | CCN(CC)c1ccc(N=C2C=C(C(=O)Nc3ccc(S(C)(=O)=O)cc3)C(=O)c3ccccc32)c(C)c1 | 0.831 | > 100 | 14 | > 100 | 1.03 | > 100 | 7.98 | > 100 | 88.5 | > 100 | 30.9 | > 100 | 35 | > 100 | 3.78 | > 100 | 2.08 | > 100 | 0.734 | > 100
9 | CNc1nc(C)c(-c2nc(Nc3cccc(S(N)(=O)=O)c3)ncc2F)s1 | 0.0228 | 0.0753 | 0.0309 | 0.108 | 0.0368 | 4.43 | 0.0223 | 3.94 | 0.0305 | 1.58 | 0.0797 | 0.187 | 0.0776 | 3.89 | 0.0302 | 14.4 | 0.0171 | 1.15 | 0.0224 | 0.0741
10 | C[C@@H]1COCCN1c1nc(-c2cnc(N)cc2C(F)F)nc(N2[C@H](C)COC[C@@H]2C)n1 | 0.144 | 1.75 | 0.863 | 19.5 | 0.423 | 13.8 | 0.206 | 11.3 | 0.3 | 11.7 | 0.0875 | 0.867 | 0.179 | 12.1 | 0.293 | 12.7 | 0.189 | 4.88 | 0.116 | 2.74
11 | CCON=C1C(C)(C)C(C)(C)C(C)(C)C1(C)C |  | > 100 |  | > 100 |  | > 100 |  | > 100 |  | > 100 |  | > 100 |  | > 100 |  | > 100 |  | > 100 |  | > 100
12 | O=C(Nc1ncc(Cc2ccccc2)s1)c1ccc2c(c1)OCCCO2 | 1.93 | > 100 | 0.33 | > 51.6 | 0.372 | > 100 | 0.323 | > 100 | 0.374 | > 100 | 0.882 | > 100 | 0.407 | > 100 | 0.614 | > 100 | 0.299 | > 100 | 0.302 | > 100
13 | COc1ccc(Nc2ccnc(NCCNc3ccnc4cc(Cl)ccc34)n2)cc1 | 1.86 | 7.01 | 2.48 | 7.06 | 3.72 | 15.2 | 1.44 | 2.96 | 1.46 | 3.41 | 1.93 | 3.87 | 2.36 | 12.8 | 2.61 | 10.3 | 2.12 | 7.51 | 1.8 | 3.62
14 | Cn1c(=O)c(Oc2cccc(F)c2)cc2cnc(NC3CCOCC3)nc21 | > 25 | > 25 | > 25 | > 25 | > 25 | > 25 | > 25 | > 25 | > 25 | > 25 | > 25 | > 25 | > 25 | > 25 | > 25 | > 25 | > 25 | > 25 | > 25 | > 25
15 | Cc1cc(=O)c2cc(N=Cc3ccc([N+](=O)[O-])o3)ccc2o1 |  | > 100 |  | > 100 |  | > 100 |  | > 100 |  | > 100 |  | > 100 |  | > 100 |  | > 100 |  | > 100 |  | > 100
16 | NC1C2C(CC(=O)O)OCC=C3CN4CCC1(C(=O)C(=O)O)C4CC32 (centres undefined) |  | > 100 |  | > 100 |  | > 100 |  | > 100 |  | > 100 |  | > 100 |  | > 100 |  | > 100 |  | > 100 |  | > 100
17 | CCc1ccc(-c2ccc(=O)n(-c3ccc(S(N)(=O)=O)cc3)n2)cc1 | 0.916 | 21.7 | 0.365 | 4.18 | 0.68 | > 100 | 11.7 | > 100 | 0.764 | > 22.2 | 0.371 | 23.1 | 0.97 | > 21.2 | 0.957 | > 20.2 | 0.0659 | 0.497 | 0.84 | > 100
18 | CC1=C(C(=O)Nc2ccc3[nH]ncc3c2)C(c2ccc(F)cc2)NC(=O)N1 (centres undefined) | 16.9 | > 25 | > 25 | > 25 | > 25 | > 25 | > 25 | > 25 | > 25 | > 25 | > 25 | > 25 | > 25 | > 25 | > 25 | > 25 | 19.2 | > 25 | > 25 | > 25
19 | Cc1ccccc1S(=O)(=O)N1[C@H](c2ccc(Cl)cc2)C(C(=O)N[C@@H](Cc2ccccc2)C(N)=O)=C[C@@H]1C(C)(C)C | 8.63 | 20.9 | 9.6 | 31.2 | 4.49 | 13.3 | 6.98 | 14 | 6.44 | 17 | 10.2 | 20.1 | 4.7 | 14.2 | 6.12 | 14 | 3.91 | 15.4 | 5.76 | 12.8
20 | CCN(CC)CCOc1ccc(Nc2ncc3cc(-c4c(Cl)cccc4Cl)c(=O)n(CCOC)c3n2)cc1 | 0.533 | 2.7 | 0.496 | 2.06 | 0.655 | 7.64 | 0.0318 | 0.153 | 0.233 | 1.5 | 0.39 | 3.95 | 0.562 | 4.77 | 0.483 | 2.96 | 0.459 | 2.15 | 0.206 | 7.04
21 | CNC(=O)c1c(NC(=O)c2cccc(C(F)(F)F)c2)sc2c1CCC(=O)C2 | 0.352 | 2.83 | 0.318 | 1.98 | 0.423 | 1.96 | 0.339 | 1.66 | 0.417 | 4 | 0.373 | 2.28 | 0.365 | > 100 | 0.448 | 2.04 | 0.191 | > 100 | 0.414 | 2.14
22 | C=C1C(=O)O[C@H]2[C@H]1CC/C(CNS(=O)(=O)c1ccc3ccccc3c1)=C\CC[C@@]1(C)O[C@@H]21 | 1.76 | 4.02 | 1.63 | 3.96 | 10.8 | 23.8 | 1.43 | 2.77 | 1.57 | 3.49 | 1.94 | 4.59 | 8.14 | 24.3 | 0.805 | 2.12 | 1.23 | 7.12 | 1.64 | 4.01
23 | COC(=O)c1ccccc1C#CCCCOS(C)(=O)=O |  | > 10 |  | > 10 |  | > 10 |  | > 10 |  | > 10 |  | > 10 |  | > 10 |  | > 10 |  | > 10 |  | > 10
24 | NS(=O)(=O)c1ccc(C2C3=C(CCCC3=O)OC3=C2C(=O)c2ccccc2C3=O)cc1 (centres undefined) | 1.12 | 2.35 | 0.254 | 0.559 | 1.22 | 3.27 | 0.136 | 1.04 | 0.455 | 1.68 | 0.319 | 1.09 | 0.589 | 2.12 | 0.244 | 0.724 | 0.47 | 3.88 | 0.24 | 0.567
25 | OCc1cccc(-c2ccc3ncc(-c4nc(NC5CC5)ncc4F)n3c2)c1 | 0.23 | 0.811 | 0.243 | 0.708 | 0.222 | 1.21 | 0.118 | 1.21 | 0.328 | 1.15 | 0.375 | 1.06 | 0.249 | 0.825 | 0.27 | 1.09 | 0.0541 | > 38.9 | 0.248 | 0.698
26 | N#Cc1c2ccccc2c2n1-c1ccccc1OC(c1ccccc1)C2=O (centres undefined) | 2.84 | 7.76 | 2.83 | 6.03 | 3.32 | 10.8 | 2.45 | 6.82 | 3.89 | 17.4 | 11.7 | 30.6 | 3.69 | 18.8 | 5.1 | 49.7 | 3.69 | 15.6 | 3.81 | 18
27 | Cc1nc2cncc(C#Cc3cncc(C(=O)Nc4ccc(CN5CCN(C)CC5)c(C(F)(F)F)c4)c3)c2nc1C | 1.72 | 7.8 | 0.237 | 1.38 | 0.005 | 2.98 | 0.208 | 0.807 | 0.144 | 0.624 | 0.146 | 0.623 | 0.354 | 6.34 | 0.899 | 6.54 | 0.46 | 3.81 | 0.24 | 1.47
